Results as given in patent US12036312B2, “Non-aqueous topical compositions comprising a halogenated salicylanilide” (priority 2016, dated 2024).

Test system: S. aureus
Experiment: MIC assay according to CLSI criteria, Example 2, S. aureus strains
Type: cell-based, Staphylococcus aureus
Conditions: Staphylococcus aureus
Source text: Chosen for its relevance regarding bacterial skin infections, the methicillin-resistant S. aureus (MRSA) 01 strain was used as the primary test microorganism. This strain is a community-acquired MRSA clinical isolate of USA 300 type, from a skin abscess.
Two-hundred-four other MRSA and methicillin-sensitive S. aureus strains, and 4 Streptococcus pyogenes strains, were also included in the study. These covered fusidic acid- and mupirocin-resistant strains, these two types of resistance being of clinical relevance.
Strains were conserved in Luria Bertani (LB) Broth (S. aureus) or Brain Heart Infusion (BHI) (S. pyogenes) supplemented with glycerol 15% (v/v) at −80° C., and reactivated by isolation on LB (S. aureus) or BHI (S. pyogenes) agar plates. Strains were cultivated in Mueller Hinton (MH) Broth-cation adjusted (S. aureus) or BHI (S. pyogenes). All strains were cultivated aerobically (microaerobically for S. pyogenes strains) at 37° C.
Bacterial cultures were stopped in their exponential growth phase and plates were inoculated with the approximate concentration of 5×10^5 cells per well. Plates were incubated at 37° C. for 18 hours (S. aureus) or 24 hours (S. pyogenes). Optical density at a wavelength of 600 nm was measured at the end of the incubation time.

Measured: MIC

C=C[C@]1(C)C[C@@H](OC(=O)CS[C@@H]2C[C@H]3CC[C@@H](C2)N3C)[C@]2(C)[C@H](C)CC[C@]3(CCC(=O)[C@H]32)[C@@H](C)[C@@H]1O [Retapamulin, retapamulin]
0.03 µg/mL: MRSA, strain MRSA 102 | MRSA, strain MRSA 103 | MRSA, strain MRSA 104 | MRSA, strain MRSA 105 | MRSA, strain MRSA 108 | MRSA, strain MRSA 109 | MRSA, strain MRSA 110 | MRSA, strain MRSA 111 | MRSA, strain MRSA 112 | MRSA, strain MRSA 113 | MSSA, strain MSSA 01 | MSSA, strain MSSA 02 | NEWMAN, strain Newman | strain 9-1862936 | strain 9-2625962 | strain 9-26422166 | strain 000040C | strain 000041C | strain 115242C | strain 115263C | strain 115268C | strain 115273C | strain 115295C | strain 115303C | strain 115427C | strain 115445C | strain 115561C | strain 115628T | strain 115691T | strain 115903T | strain 116122T | strain E5-1029252 | strain E5-1029558 | strain E5-1030469 | strain E5-1033076 (first listing, r204) | strain E5-1033076 (second listing, r205) | strain E5-1033088 | strain E5-1035277 | strain E5-1035284 | strain E5-1035779 | strain E5-1037971 | strain E5-1038279 | strain E5-1038294 | strain E5-1041977 | strain E5-1041979 | strain E5-1041980 | strain E5-1041987 | strain E5-1043184 | strain E5-1046019 | strain E5-1046070 | strain E5-1046296 | strain E5-1046298 | strain E5-1047585 | strain E5-1047606 | strain E5-1047924 | strain E5-1048204 | strain EEFIC 01 | strain EEFIC 02 | strain K000796 | strain K000863 | strain K000864 | strain K000866 | strain K115498 | strain K115688 | strain K115689 | strain R000020
0.02 µg/mL: strain E5-1030482 | strain E5-1033091
0.25 µg/mL: strain 115690C
0.06 µg/mL: MRSA, strain MRSA 106 | MRSA, strain MRSA 107 | strain 9-2642158 | strain 9-2955245 | strain 000274T | strain 114660U | strain 115015T | strain 115370U | strain 115584D | strain 115740E | strain 115810E | strain E5-1030440 | strain E5-1030472 | strain E5-1035775 | strain E5-1037958 | strain E5-1038286 | strain E5-1039684 | strain E5-1039697 | strain E5-1043668 | strain E5-1045179 | strain E5-1046020 | strain E5-1046039 | strain E5-1046074 | strain E5-1046085 | strain E5-1046096 | strain E5-1046297 | strain E5-1046723 | strain E5-1048428 | strain E5-1048654 | strain E5-1048670 | strain K000772 | strain R000019 | strain R000024 | strain U115579
